Source: PubChem BioAssay AID330 (DTP/NCI, 2004)
Values joined by “and” are separate entries in the source; they are usually repeats but may differ in a detail not shown here. Identical values can stand only once. Inconclusive results and toxic doses are left out.

System: P388 leukemia ip, CD2F1 mice, survival T/C
Experiment: NCI In Vivo Anticancer Drug Screen. Data for tumor model P388 Leukemia (intraperitoneal) in CD2F1 (CDF1) mice
Settings: endpoint: median survival time, higher = longer survival
Method in brief: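 Mice carrying the transplanted tumor received test compound or vehicle. Survival was recorded in each group, and the value is the treated-group measurement divided by that of the vehicle-treated control group.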

[1] = dose: 25.0 mg/kg/injection, schedule: Q01DX009 (ip), vehicle: Klucel (hydroxypropylcellulose) (HPC)
[2] = dose: 50.0 mg/kg/injection, schedule: Q01DX009 (ip), vehicle: Klucel (hydroxypropylcellulose) (HPC)
[3] = dose: 60.0 mg/kg/injection, schedule: Q01DX005 (ip), vehicle: saline with Tween-80
[4] = dose: 120.0 mg/kg/injection, schedule: Q01DX005 (ip), vehicle: saline with Tween-80
[5] = dose: 240.0 mg/kg/injection, schedule: Q01DX005 (ip), vehicle: saline with Tween-80
[6] = dose: 100.0 mg/kg/injection, schedule: Q04DX003 (ip), vehicle: saline with Tween-80
[7] = dose: 200.0 mg/kg/injection, schedule: Q04DX003 (ip), vehicle: saline with Tween-80
[8] = dose: 50.0 mg/kg/injection, schedule: Q01DX005 (ip), vehicle: Klucel (hydroxypropylcellulose) (HPC)
[9] = dose: 100.0 mg/kg/injection, schedule: Q01DX005 (ip), vehicle: Klucel (hydroxypropylcellulose) (HPC)
[10] = dose: 200.0 mg/kg/injection, schedule: Q01DX005 (ip), vehicle: Klucel (hydroxypropylcellulose) (HPC)
[11] = dose: 100.0 mg/kg/injection, schedule: Q01DX009 (ip), vehicle: Klucel (hydroxypropylcellulose) (HPC)
[12] = dose: 50.0 mg/kg/injection, schedule: Q01DX009 (ip), vehicle: saline with Tween-80
[13] = dose: 100.0 mg/kg/injection, schedule: Q01DX009 (ip), vehicle: saline with Tween-80
[14] = dose: 50.0 mg/kg/injection, schedule: Q01DX005 (ip), vehicle: saline with Tween-80
[15] = dose: 100.0 mg/kg/injection, schedule: Q01DX005 (ip), vehicle: saline with Tween-80
[16] = dose: 200.0 mg/kg/injection, schedule: Q01DX009 (ip), vehicle: Klucel (hydroxypropylcellulose) (HPC)

[O-][n+]1onc2ccccc21 was tested, and the T/C (dose: 25.0 mg/kg/injection, schedule: Q04DX002 (ip), vehicle: saline with Tween-80) was 103 % of control, the T/C (dose: 50.0 mg/kg/injection, schedule: Q04DX002 (ip), vehicle: saline with Tween-80) was 109 % of control and the T/C (dose: 100.0 mg/kg/injection, schedule: Q04DX002 (ip), vehicle: saline with Tween-80) was 90 % of control.
For C=C1C(=O)OC2/C=C(/C)C3(O)OC(C)(CC(OC(=O)C(C)C)C12)CC3OC(C)=O (centres undefined), the T/C [1] was 110 % of control and the T/C [2] was 116 % of control.
With CCc1ccc(C2=C(O)C(=O)C(c3ccc(CC)cc3)=C(O)C2=O)cc1 the T/C (dose: 6.25 mg/kg/injection, schedule: Q01DX009 (ip), vehicle: saline with Tween-80) was 100 % of control, the T/C (dose: 12.5 mg/kg/injection, schedule: Q01DX009 (ip), vehicle: saline with Tween-80) was 110 % of control and the T/C (dose: 33.0 mg/kg/injection, schedule: Q01DX009 (ip), vehicle: saline with Tween-80) was 163 % of control.
For [Cu+2].[O-]/N=C/c1ccc(O)c(O)c1[O-].[O-]/N=C/c1ccc(O)c(O)c1[O-], the T/C [3] was 91 % of control, the T/C [4] was 87 % of control and the T/C [5] was 89 % of control.
With Cc1ncn2cnnc2c1C the T/C [6] was 89 % of control and the T/C [7] was 95 % of control.
With CCOC(=O)C(=O)Nc1[nH]c(C)c(C)c1C#N the T/C (dose: 50.0 mg/kg/injection, schedule: Q01DX009 (ip), vehicle: saline + alcohol) was 91 % of control, the T/C (dose: 100.0 mg/kg/injection, schedule: Q01DX009 (ip), vehicle: saline + alcohol) was 96 % of control and the T/C (dose: 200.0 mg/kg/injection, schedule: Q01DX009 (ip), vehicle: saline + alcohol) was 89 % of control.
O=C1C=C2CCCCCCCCCCC2CC1 (centres undefined) was tested, and the T/C [8] was 103 % of control, the T/C [9] was 92 % of control and the T/C [10] was 92 % of control.
CC(=O)/C(=N/O)C(C)=NCc1ccccc1 was tested, and the T/C [11] was 88 % of control.
With O=C(O)CCCNSc1ccccc1[N+](=O)[O-] the T/C (dose: 12.5 mg/kg/injection, schedule: Q01DX009 (ip), vehicle: saline) was 100 % of control and 117 % of control, the T/C (dose: 25.0 mg/kg/injection, schedule: Q01DX009 (ip), vehicle: saline) was 108 % of control and 94 % of control and the T/C (dose: 50.0 mg/kg/injection, schedule: Q01DX009 (ip), vehicle: saline) was 99 % of control and 110 % of control. For the same compound, the T/C (dose: 100.0 mg/kg/injection, schedule: Q01DX009 (ip), vehicle: saline) was 100 % of control and 108 % of control.
c1ccc2c(c1)[As]=c1ccccc1=[As]2 (centres undefined) was tested, and the T/C (dose: 0.79 mg/kg/injection, schedule: Q01DX009 (ip), vehicle: saline) was 107 % of control, the T/C (dose: 1.56 mg/kg/injection, schedule: Q01DX009 (ip), vehicle: saline) was 105 % of control and 118 % of control and the T/C (dose: 3.12 mg/kg/injection, schedule: Q01DX009 (ip), vehicle: saline) was 122 % of control. The T/C (dose: 6.25 mg/kg/injection, schedule: Q01DX009 (ip), vehicle: saline) was 173 % of control.
For Cn1c2c(c3cc(I)ccc31)CCc1cncnc1-2, the T/C (dose: 37.5 mg/kg/injection, schedule: Q01DX001 (ip), vehicle: Klucel (hydroxypropylcellulose) (HPC)) was 102 % of control, the T/C (dose: 75.0 mg/kg/injection, schedule: Q01DX001 (ip), vehicle: Klucel (hydroxypropylcellulose) (HPC)) was 91 % of control and the T/C (dose: 150.0 mg/kg/injection, schedule: Q01DX001 (ip), vehicle: Klucel (hydroxypropylcellulose) (HPC)) was 91 % of control.
In the case of CC(=O)N(Sc1ccccc1)c1ccccc1, the T/C (dose: 25.0 mg/kg/injection, schedule: Q01DX009 (ip), vehicle: saline with Tween-80) is reported as 110 % of control, the T/C [12] is reported as 106 % of control and the T/C [13] is reported as 103 % of control.
In the case of CCN(CC)CCOc1ccc(C)c(C)c1, the T/C [14] is reported as 106 % of control and the T/C [15] is reported as 103 % of control.
In the case of S=C1SC2(CCCC2)NC2=C1CCC2, the T/C [12] is reported as 90 % of control, the T/C [13] is reported as 93 % of control and the T/C (dose: 200.0 mg/kg/injection, schedule: Q01DX009 (ip), vehicle: saline with Tween-80) is reported as 99 % of control.
With Clc1nc(Cl)c2[nH]c(Cl)nc2n1 the T/C [8] was 99 % of control, the T/C [9] was 99 % of control and the T/C [10] was 102 % of control.
In the case of COc1ccc(C(=O)CC(C(=O)O)c2ccc3c(c2)OCO3)cc1OC (centres undefined), the T/C [6] is reported as 100 % of control, the T/C [7] is reported as 90 % of control and the T/C (dose: 400.0 mg/kg/injection, schedule: Q04DX003 (ip), vehicle: saline with Tween-80) is reported as 90 % of control.
CCCCCN(C)/N=N/c1nc[nH]c1C(N)=O was tested, and the T/C [6] was 120 % of control, the T/C [7] was 110 % of control and the T/C (dose: 600.0 mg/kg/injection, schedule: Q04DX003 (ip), vehicle: saline with Tween-80) was 90 % of control.
With O=C(SC(O)c1ccc(Cl)cc1)c1ccccc1 (centres undefined) the T/C [2] was 99 % of control, the T/C [11] was 106 % of control and the T/C [16] was 105 % of control.
In the case of CCOC(=O)CCN(CCN(C)C)c1cc(O)c2c(c1O)C(=O)c1ccccc1C2=O, the T/C [14] is reported as 121 % of control and the T/C [15] is reported as 120 % of control.
In the case of O=P(C(=S)NC1CC2C=CC1C2)(c1ccccc1)c1ccccc1 (centres undefined), the T/C [1] is reported as 95 % of control, the T/C [2] is reported as 100 % of control and 88 % of control and the T/C [11] is reported as 91 % of control. The T/C [16] was 90 % of control.
For C/[N+]([O-])=C1\C(C2COC(C)(C)O2)OC2OC(C)(C)OC12 (centres undefined), the T/C (dose: 100.0 mg/kg/injection, schedule: Q04DX002 (ip), vehicle: saline) was 97 % of control, the T/C (dose: 200.0 mg/kg/injection, schedule: Q04DX002 (ip), vehicle: saline) was 107 % of control and the T/C (dose: 400.0 mg/kg/injection, schedule: Q04DX002 (ip), vehicle: saline) was 105 % of control.
With CC(C)Cn1c(Cl)c(C(=O)O)c2ccccc21 the T/C (dose: 100.0 mg/kg/injection, schedule: Q04DX002 (ip), vehicle: Klucel (hydroxypropylcellulose) (HPC)) was 92 % of control and the T/C (dose: 200.0 mg/kg/injection, schedule: Q04DX002 (ip), vehicle: Klucel (hydroxypropylcellulose) (HPC)) was 88 % of control.
For c1ccc2c(Nc3nccs3)c3ccccc3nc2c1, the T/C (dose: 12.5 mg/kg/injection, schedule: Q04DX002 (ip), vehicle: distilled water + Tween-80) was 96 % of control, the T/C (dose: 25.0 mg/kg/injection, schedule: Q04DX002 (ip), vehicle: distilled water + Tween-80) was 96 % of control and the T/C (dose: 50.0 mg/kg/injection, schedule: Q04DX002 (ip), vehicle: distilled water + Tween-80) was 88 % of control. For the same compound, the T/C (dose: 100.0 mg/kg/injection, schedule: Q04DX002 (ip), vehicle: distilled water + Tween-80) was 94 % of control, the T/C (dose: 200.0 mg/kg/injection, schedule: Q04DX002 (ip), vehicle: distilled water + Tween-80) was 98 % of control and the T/C (dose: 400.0 mg/kg/injection, schedule: Q04DX002 (ip), vehicle: distilled water + Tween-80) was 103 % of control.
In the case of C1CCC(C2CCCC[N-]2)[N-]C1.O.O.[Pd+2] (centres undefined), the T/C (dose: 6.25 mg/kg/injection, schedule: Q04DX003 (ip), vehicle: Klucel (hydroxypropylcellulose) (HPC)) is reported as 102 % of control, the T/C (dose: 6.25 mg/kg/injection, schedule: Q04DX003 (ip), vehicle: saline with Tween-80) is reported as 96 % of control and the T/C (dose: 12.5 mg/kg/injection, schedule: Q04DX003 (ip), vehicle: Klucel (hydroxypropylcellulose) (HPC)) is reported as 102 % of control. The T/C (dose: 12.5 mg/kg/injection, schedule: Q04DX003 (ip), vehicle: saline with Tween-80) was 104 % of control, the T/C (dose: 25.0 mg/kg/injection, schedule: Q04DX003 (ip), vehicle: Klucel (hydroxypropylcellulose) (HPC)) was 102 % of control and the T/C (dose: 25.0 mg/kg/injection, schedule: Q04DX003 (ip), vehicle: saline with Tween-80) was 98 % of control and 105 % of control. The T/C (dose: 50.0 mg/kg/injection, schedule: Q04DX003 (ip), vehicle: Klucel (hydroxypropylcellulose) (HPC)) was 101 % of control, the T/C (dose: 50.0 mg/kg/injection, schedule: Q04DX003 (ip), vehicle: saline with Tween-80) was 96 % of control and the T/C [6] was 97 % of control.
In the case of CCOC(=O)c1ccc(-n2c(C)nc3ccc(Br)cc3c2=O)cc1, the T/C [3] is reported as 98 % of control, the T/C [4] is reported as 95 % of control and the T/C [5] is reported as 100 % of control.
CCCCCCCCCCCCSC(SCCCCCCCCCCCC)c1ccc(OCC(=O)O)cc1 was tested, and the T/C (dose: 25.0 mg/kg/injection, schedule: Q04DX003 (ip), vehicle: DMSO) was 96 % of control, the T/C (dose: 50.0 mg/kg/injection, schedule: Q04DX003 (ip), vehicle: DMSO) was 91 % of control and the T/C (dose: 100.0 mg/kg/injection, schedule: Q04DX003 (ip), vehicle: DMSO) was 94 % of control. For the same compound, the T/C (dose: 200.0 mg/kg/injection, schedule: Q04DX003 (ip), vehicle: DMSO) was 91 % of control.
